Experimental data as given in patent US8329705B2, “Substituted triazolo-pyrazine compounds” (ArQule, Inc., priority 2009, dated 2012).

target: T1, FGFR2 (N549H) (Homo sapiens, UniProt P21802, N549H); assay: FGFR2 kinase activity assay (fluorescent ELISA); type: biochemical; details: 30 μM compound
T1 construct: purchased Millipore 14-742
Experimental: A fluorescent ELISA assay was developed to identify and characterize inhibitors of FGFR2 kinase. This heterogeneous assay utilized a biotinylated peptide with a tyrosine motif as a substrate and an anti-phospho-tyrosine antibody to measure phosphorylation of the substrate. The reaction was initiated by adding a test compound, 37 uM Pyk2 substrate (Midwest Biotech, cat. #MBT2383), 12.5 uM ATP (Roche, cat. #11 140 965 001), and 0.5 uM FGFR2 enzyme (Millipore, cat. #14-742) sequentially to a non-binding polypropylene V-well plate. All reagents were in assay buffer consisting of: 50 mM Tris-HCL, 0.02 mg/mL BSA, 10 mM MgCl2, 0.1 mM Na3VO4, 1 mM EGTA, […], 0.01% NP-40, 2 mM DTT, 10% Glycerol. The reaction was incubated for 60 minutes. As the reaction proceeded, FGFR2 phosphorylated tyrosines in the peptide. The reaction mixture was then moved to a blocked streptavidin coated Nunc Maxisorb plate (coated with 100 ng streptavidin from Pierce (cat #15-124) per well) allowing for the capture of the biotinylated peptide. Peptide was captured for 30 minutes at room temperature, the phosphorylation of peptide continues during this phase. The reaction was stopped by washing the Streptavidin plate 6 times with TBST. Phosphorylated peptide was detected by adding anti-phospho tyrosine antibody (purchased from Cell Signaling, cat. #9411, diluted 1:3000), unbound antibody was removed by washing 6 times with TBST. Secondary detection was performed using Alkaline Phosphatase tagged goat anti-mouse antibody (purchased from Pierce, cat. #31320, diluted 1:4000) for one hour. Unbound secondary antibody was removed by washing 6 times with TBST.
The fluorescent readout was initiated by the addition of Promega Attophos substrate (purchased from Promega; Kit catalog number: S1000, dilution=6 mg/10 mL), which when dephosphorylated by Alkaline phosphatase emitted a fluorescent signal of […] when excited by a signal […]. This reading was done on the Perkin Elmer Envision system. […] The signal was directly proportional to the activity of FGFR2 and compound inhibition of FGFR2 was monitored by a decrease in signal.

T1 sequence (P21802 22-821 N549H): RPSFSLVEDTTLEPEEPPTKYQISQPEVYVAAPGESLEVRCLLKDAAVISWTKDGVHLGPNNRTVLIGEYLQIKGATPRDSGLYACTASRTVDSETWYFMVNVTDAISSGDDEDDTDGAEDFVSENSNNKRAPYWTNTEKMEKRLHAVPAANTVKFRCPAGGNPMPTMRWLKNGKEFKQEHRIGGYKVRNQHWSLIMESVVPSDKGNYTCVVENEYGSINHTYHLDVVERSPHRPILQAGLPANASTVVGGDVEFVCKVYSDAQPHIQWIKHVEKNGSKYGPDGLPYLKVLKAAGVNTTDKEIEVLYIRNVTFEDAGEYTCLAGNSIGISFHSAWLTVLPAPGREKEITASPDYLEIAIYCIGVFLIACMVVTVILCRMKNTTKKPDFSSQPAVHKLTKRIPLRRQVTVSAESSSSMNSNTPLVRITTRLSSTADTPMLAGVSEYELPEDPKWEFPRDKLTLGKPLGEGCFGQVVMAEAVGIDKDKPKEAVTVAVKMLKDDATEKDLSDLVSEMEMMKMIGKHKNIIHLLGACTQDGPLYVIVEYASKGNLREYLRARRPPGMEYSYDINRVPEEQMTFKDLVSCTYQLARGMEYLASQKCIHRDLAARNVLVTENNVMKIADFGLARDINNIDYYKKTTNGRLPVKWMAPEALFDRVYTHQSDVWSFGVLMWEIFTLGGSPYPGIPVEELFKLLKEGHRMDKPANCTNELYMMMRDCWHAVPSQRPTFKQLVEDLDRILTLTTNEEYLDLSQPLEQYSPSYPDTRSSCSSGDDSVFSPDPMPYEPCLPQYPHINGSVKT

Row | SMILES | inhibition at 30 µM [%]
1 | COc1ccc(Cl)cc1Nc1nccn2c(NC(=O)OC(C)C)nnc12 [Compound 7, isopropyl {8-[(5-chloro-2-methoxyphenyl)amino][1,2,4]triazolo[4,3-a]pyrazin-3-yl}carbamate] | 55.5
2 | CC(C)OC(=O)Nc1nnc2c(Nc3ccccc3Cl)nccn12 [Compound 13, isopropyl {8-[(2-chlorophenyl)amino][1,2,4]triazolo[4,3-a]pyrazin-3-yl}carbamate] | 50.5
3 | Cc1ccccc1Nc1nccn2c(NC(=O)OC(C)C)nnc12 [Compound 14, isopropyl {8-[(2-methylphenyl)amino][1,2,4]triazolo[4,3-a]pyrazin-3-yl}carbamate] | 82
4 | CC(C)OC(=O)Nc1nnc2c(NCc3ccc(C(F)(F)F)cc3)nccn12 [Compound 17, isopropyl (8-{[4-(trifluoromethyl)benzyl]amino}[1,2,4]triazolo[4,3-a]pyrazin-3-yl)carbamate] | 68.8
5 | Cc1cccc(CNc2nccn3c(NC(=O)OC(C)C)nnc23)c1 [Compound 19, isopropyl {8-[(3-methylbenzyl)amino][1,2,4]triazolo[4,3-a]pyrazin-3-yl}carbamate] | 55.2
6 | COc1ccc(C)cc1Nc1nccn2c(NC(=O)OC(C)C)nnc12 [Compound 23, isopropyl {8-[(2-methoxy-5-methylphenyl)amino][1,2,4]triazolo[4,3-a]pyrazin-3-yl}carbamate] | 50.9
7 | CC(C)OC(=O)Nc1nnc2c(NCc3cccc(Cl)c3)nccn12 [Compound 24, isopropyl {8-[(3-chlorobenzyl)amino][1,2,4]triazolo[4,3-a]pyrazin-3-yl}carbamate] | 65.3
8 | CC(C)OC(=O)Nc1nnc2c(NCCc3ccc(F)cc3)nccn12 [Compound 28, isopropyl (8-{[2-(4-fluorophenyl)ethyl]amino}[1,2,4]triazolo[4,3-a]pyrazin-3-yl)carbamate] | 51.6
9 | CC(C)OC(=O)Nc1nnc2c(N(C)Cc3ccccc3)nccn12 [Compound 30, isopropyl {8-[benzyl(methyl)amino][1,2,4]triazolo[4,3-a]pyrazin-3-yl}carbamate] | 56.3
10 | COc1cc(CCNc2nccn3c(NC(=O)OC(C)C)nnc23)cc(OC)c1 [Compound 31, isopropyl (8-{[2-(3,5-dimethoxyphenyl)ethyl]amino}[1,2,4]triazolo[4,3-a]pyrazin-3-yl)carbamate] | 96.5
11 | CC(C)OC(=O)Nc1nnc2c(Nc3ccc4c(c3)CCC4)nccn12 [Compound 34, isopropyl [8-(2,3-dihydro-1H-inden-5-ylamino)[1,2,4]triazolo[4,3-a]pyrazin-3-yl]carbamate] | 68.7
12 | COc1ccc(Nc2nccn3c(NC(=O)OC(C)C)nnc23)c(OC)c1 [Compound 35, isopropyl {8-[(2,4-dimethoxyphenyl)amino][1,2,4]triazolo[4,3-a]pyrazin-3-yl}carbamate] | 57
13 | CC(C)OC(=O)Nc1nnc2c(NCCc3ccc(Oc4ccccc4)cc3)nccn12 [Compound 36, isopropyl (8-{[2-(4-phenoxyphenyl)ethyl]amino}[1,2,4]triazolo[4,3-a]pyrazin-3-yl)carbamate] | 51.4
14 | COc1ccccc1N(C)c1nccn2c(NC(=O)OC(C)C)nnc12 [Compound 41, isopropyl {8-[(2-methoxyphenyl)(methyl)amino][1,2,4]triazolo[4,3-a]pyrazin-3-yl}carbamate] | 62.5
15 | Cc1cccc(CCNc2nccn3c(NC(=O)OC(C)C)nnc23)c1 [Compound 42, isopropyl (8-{[2-(3-methylphenyl)ethyl]amino}[1,2,4]triazolo[4,3-a]pyrazin-3-yl)carbamate] | 58.7
16 | COc1ccc(OC)c(Nc2nccn3c(NC(=O)OC(C)C)nnc23)c1 [Compound 46, isopropyl {8-[(2,5-dimethoxyphenyl)amino][1,2,4]triazolo[4,3-a]pyrazin-3-yl}carbamate] | 84.6
